From patent US8163724B2, “Glucocorticosteroids, processes for their preparation, pharmaceutical compositions containing them and their use in therapy” (AstraZeneca AB, priority 2007, dated 2012)
pIC50: −log10 of the molar value.

biological target: T1, recombinant human GR (Homo sapiens, UniProt P04150); experiment: Human Glucocorticoid Receptor (GR) Assay (fluorescence polarization, Panvera/Invitrogen kit); format: binding; conditions: not given
T1 construct: purchased Panvera/Invitrogen P2812 (kit P2893)
T1 sequence (P04150 1-777): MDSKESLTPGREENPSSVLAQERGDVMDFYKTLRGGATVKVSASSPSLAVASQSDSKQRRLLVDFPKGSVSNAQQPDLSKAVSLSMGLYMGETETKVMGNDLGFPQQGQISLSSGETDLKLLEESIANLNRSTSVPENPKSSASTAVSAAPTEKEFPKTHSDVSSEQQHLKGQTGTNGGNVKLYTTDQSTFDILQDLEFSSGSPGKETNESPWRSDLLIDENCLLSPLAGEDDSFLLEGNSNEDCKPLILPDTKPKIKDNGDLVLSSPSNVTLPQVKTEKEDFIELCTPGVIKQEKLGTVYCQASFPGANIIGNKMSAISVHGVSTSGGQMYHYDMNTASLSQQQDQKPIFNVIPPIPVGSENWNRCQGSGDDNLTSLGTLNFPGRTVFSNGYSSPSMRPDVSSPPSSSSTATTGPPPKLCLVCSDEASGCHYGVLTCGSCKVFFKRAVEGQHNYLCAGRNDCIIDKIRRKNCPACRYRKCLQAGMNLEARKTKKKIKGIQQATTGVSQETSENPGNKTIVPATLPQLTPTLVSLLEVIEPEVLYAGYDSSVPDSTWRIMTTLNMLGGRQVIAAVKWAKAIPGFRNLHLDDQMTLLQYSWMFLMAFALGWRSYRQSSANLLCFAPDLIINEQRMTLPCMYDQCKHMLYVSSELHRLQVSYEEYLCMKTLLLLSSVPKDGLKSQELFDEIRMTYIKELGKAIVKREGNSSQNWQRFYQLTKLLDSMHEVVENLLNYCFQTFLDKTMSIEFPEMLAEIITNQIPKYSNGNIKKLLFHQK
Procedure: Human Glucocorticoid Receptor (GR) Assay
The assay is based on a commercial kit from Panvera/Invitrogen (Part number P2893). The assay technology is fluorescence polarization. […] The GR and Stabilizing Peptide reagents are stored at −70° C. while the GS Red is stored at −20° C. Also included in the kit are 1M DTT (Panvera, Part number P2325, stored at −20° C.) and GR Screening buffer 10× (Panvera, Part number P2814, stored at −70° C. initially but once thawed stored at room temperature). Avoid repeated freeze/thaws for all reagents. The GR Screening buffer 10× comprises 100 mM potassium phosphate, 200 mM sodium molybdate, 1 mM EDTA and 20% DMSO.
0% control was 100% DMSO and 100% control was 10 μM Dexamethasone. Background solution (8 μL; assay buffer 10×, Stabilizing Peptide, DTT and ice cold MQ water) was added to the background wells. GS Red solution (7 μL; assay buffer 10×, Stabilizing Peptide, DTT, GS Red and ice cold water) was added to all wells except background wells. GR solution (7 μL; assay buffer 10×, Stabilizing Peptide, DTT, GR and ice cold water) was added to all wells. The plate was sealed and incubated in a dark at room temperature for 2 hours.

How did the pIC50 turn out when `C[C@]12Cc3cnn(-c4ccc(F)cc4)c3C=C1CC[C@@H]1[C@@H]2[C@@H](O)C[C@@]2(C)[C@H]1CC[C@]2(OC(=O)CF)C(=O)SCC#N` [Example 27, (1R,3aS,3bS,10aR,10bS,1,1S,12aS)-1-{[(Cyanomethyl)thio]carbonyl}-7-(4-fluoro-phenyl)-11-hydroxy-10a,12a-dimethyl-1,2,3,3a,3b,4,5,7,10,10a,10b,11,12,12a-tetradecahydrocyclopenta[5,6]naphtho[1,2-f]indazol-1-yl fluoroacetate] was run?
Its pIC50 is 8.52.

With `C[C@]12Cc3cnn(-c4ccc(F)cc4)c3C=C1CC[C@@H]1[C@@H]2[C@@H](O)C[C@@]2(C)[C@H]1CC[C@]2(OC(=O)CF)C(=O)SCF` [Example 28, (1R,3aS,3bS,10aR,10bS,11S,12aS)-1-{[(Fluoromethyl)thio]carbonyl}-7-(4-fluoro-phenyl)-11-hydroxy-10a,12a-dimethyl-1,2,3,3a,3b,4,5,7,10,10a,10b,11,12,12a-tetradecahydrocyclopenta[5,6]naphtho[1,2-f]indazol-1-yl fluoroacetate] as the compound, how does the pIC50 read?
Its pIC50 is 8.38.

same assay, conditions: fluorescence polarization; GS Red tracer; 2 hours at room temperature; 100% control 10 μM Dexamethasone; read-out: Inhibition of GR binding, IC50

How did the pIC50 turn out when `CC(=O)OCC(=O)O[C@]1(C(=O)SCC#N)CC[C@H]2[C@@H]3CCC4=Cc5c(cnn5-c5ccc(F)cc5)C[C@]4(C)[C@H]3[C@@H](O)C[C@@]21C` [Example 29, (1R,3aS,3bS,10aR,10bS,11S,12aS)-1-{[(Cyanomethyl)thio]carbonyl}-7-(4-fluoro-phenyl)-11-hydroxy-10a,12a-dimethyl-1,2,3,3a,3b,4,5,7,10,10a,10b,11,12,12a-tetradecahydrocyclopenta[5,6]naphtho[1,2-f]indazol-1-yl (acetyloxy)acetate] was run?
The pIC50 was 8.24.

With `COCC(=O)O[C@]1(C(=O)SCC#N)CC[C@H]2[C@@H]3CCC4=Cc5c(cnn5-c5ccc(F)cc5)C[C@]4(C)[C@H]3[C@@H](O)C[C@@]21C` [Example 30, (1R,3aS,3bS,10aR,10bS,11S,12aS)-1-{[(Cyanomethyl)thio]carbonyl}-7-(4-fluoro-phenyl)-11-hydroxy-10a,12a-dimethyl-1,2,3,3a,3b,4,5,7,10,10a,10b,11,12,12a-tetradecahydrocyclopenta[5,6]naphtho[1,2-f]indazol-1-yl methoxyacetate] as the compound, how does the pIC50 read?
The pIC50 was 8.51.

With `COCC(=O)O[C@]1(C(=O)SCC#CCO)CC[C@H]2[C@@H]3CCC4=Cc5c(cnn5-c5ccc(F)cc5)C[C@]4(C)[C@H]3[C@@H](O)C[C@@]21C` [Example 31, (1R,3aS,3bS,10aR,10bS,11S,12aS)-7-(4-Fluorophenyl)-11-hydroxy-1-{[(4-hydroxy-but-2-yn-1-yl)thio]carbonyl}-10a,12a-dimethyl-1,2,3,3a,3b,4,5,7,10,10a,10b,11,12,12a-tetradecahydrocyclopenta[5,6]naphtho[1,2-f]indazol-1-yl methoxyacetate] as the compound, how does the pIC50 read?
Its pIC50 is 8.35.

How did the pIC50 turn out when `COCC(=O)O[C@]1(C(=O)SCCO)CC[C@H]2[C@@H]3CCC4=Cc5c(cnn5-c5ccc(F)cc5)C[C@]4(C)[C@H]3[C@@H](O)C[C@@]21C` [Example 32, (1R,3aS,3bS,10aR,10bS,11S,12aS)-7-(4-Fluorophenyl)-11-hydroxy-1-{[(2-hydroxy-ethyl)thio]carbonyl}-10a,12a-dimethyl-1,2,3,3a,3b,4,5,7,10,10a,10b,11,12,12a-tetradecahydrocyclopenta[5,6]naphtho[1,2-f]indazol-1-yl methoxyacetate] was run?
The pIC50 was 8.80.

`COCC(=O)O[C@]1(C(=O)SCC(C)=O)CC[C@H]2[C@@H]3CCC4=Cc5c(cnn5-c5ccc(F)cc5)C[C@]4(C)[C@H]3[C@@H](O)C[C@@]21C` [Example 33, (1R,3aS,3bS,10aR,10bS,11S,12aS)-7-(4-Fluorophenyl)-11-hydroxy-10a,12a-dimethyl-1-{[(2-oxopropyl)thio]carbonyl}-1,2,3,3a,3b,4,5,7,10a,10 b,11,12,12a-tetradecahydrocyclopenta[5,6]naphtho[1,2-f]indazol-1-yl methoxyacetate] was tested. Which pIC50 did it give?
The pIC50 was 8.57.

How did the pIC50 turn out when `COCC(=O)O[C@]1(C(=O)SCF)CC[C@H]2[C@@H]3CCC4=Cc5c(cnn5-c5ccc(F)cc5)C[C@]4(C)[C@H]3[C@@H](O)C[C@@]21C` [Example 34, (1R,3aS,3bS,10aR,10bS,11S,12aS)-1-{[(Fluoromethyl)thio]carbonyl}-7-(4-fluoro-phenyl)-11-hydroxy-10a,12a-dimethyl-1,2,3,3a,3b,4,5,7,10,10a,10b,11,12,12a-tetradecahydrocyclopenta[5,6]naphtho[1,2-f]indazol-1-yl methoxyacetate] was run?
The pIC50 was 8.77.

How did the pIC50 turn out when `C[C@]12Cc3cnn(-c4ccc(F)cc4)c3C=C1CC[C@@H]1[C@@H]2[C@@H](O)C[C@@]2(C)[C@H]1CC[C@]2(OC(=O)C1CC1)C(=O)SCC#N` [Example 35, (1R,3aS,3bS,10aR,10bS,11S,12aS)-1-{[(Cyanomethyl)thio]carbonyl}-7-(4-fluoro-Phenyl)-11-hydroxy-10a,12a-dimethyl-1,2,3,3a,3b,4,5,7,10,10a,10b,11,12,12a-tetradecahydrocyclopenta[5,6]naphtho[1,2-f]indazol-1-yl cyclopropanecarboxylate] was run?
The pIC50 was 8.30.

How did the pIC50 turn out when `C[C@]12Cc3cnn(-c4ccc(F)cc4)c3C=C1CC[C@@H]1[C@@H]2[C@@H](O)C[C@@]2(C)[C@H]1CC[C@]2(OC(=O)C1CC1)C(=O)SCCO` [Example 36, (1R,3aS,3bS,10aR,10bS,11S,12aS)-7-(4-Fluorophenyl)-11-hydroxy-1-{[(2-hydroxy-ethyl)thio]carbonyl}-10a,12a-dimethyl-1,2,3,3a,3b,4,5,7,10,10a,10b,11,12,12a-tetradecahydrocyclopenta[5,6]naphtho[1,2-f]indazol-1-yl cyclopropanecarboxylate] was run?
Its pIC50 is 8.60.

How did the pIC50 turn out when `C[C@]12Cc3cnn(-c4ccc(F)cc4)c3C=C1CC[C@@H]1[C@@H]2[C@@H](O)C[C@@]2(C)[C@H]1CC[C@]2(OC(=O)C1CC1)C(=O)SCC#CCO` [Example 37, (1R,3aS,3bS,10aR,10bS,11S,12aS)-7-(4-Fluorophenyl)-11-hydroxy-{[(4-hydroxybut-2-yn-1-yl)thio]carbonyl}-10a,12a-dimethyl-1,2,3,3a,3b,4,5,7,10,11a,10b,11,12,12a-tetradecahydrocyclopenta[5,6]naphtho[1,2-f]indazol-1-yl cyclopropanecarboxylate] was run?
Its pIC50 is 8.24.

How did the pIC50 turn out when `C[C@]12Cc3cnn(-c4ccc(F)cc4)c3C=C1CC[C@@H]1[C@@H]2[C@@H](O)C[C@@]2(C)[C@H]1CC[C@]2(OC(=O)C1CC1)C(=O)SCF` [Example 38, (1R,3aS,3bS,10aR,10bS,11S,12aS)-1-{[(Fluoromethyl)thio]carbonyl}-7-(4-fluoro-phenyl)-11-hydroxy-10a,12a-dimethyl-1,2,3,3a,3b,4,5,7,10,10a,10b,11,12,12a-tetradecahydrocyclopenta[5,6]naphtho[1,2-f]indazol-1-yl cyclopropanecarboxylate] was run?
The pIC50 was 8.24.

With `C[C@]12Cc3cnn(-c4ccc(F)cc4)c3C=C1CC[C@@H]1[C@@H]2[C@@H](O)C[C@@]2(C)[C@H]1CC[C@]2(OC(=O)c1nccs1)C(=O)SCC#N` [Example 39, (1R,3aS,3bS,10aR,10bS,11S,12aS)-1-{[(Cyanomethyl)thio]carbonyl}-7-(4-fluorophenyl)-11-hydroxy-10a,12a-dimethyl-1,2,3,3a,3b,4,5,7,10,10a,10b,11,12,12a-tetradecahydropcyclopenta[5,6]naphtho[1,2-f]indazol-1-yl 1,3-thiazole-2-carboxylate] as the compound, how does the pIC50 read?
The pIC50 was 8.48.

With `C[C@]12Cc3cnn(-c4ccc(F)cc4)c3C=C1CC[C@@H]1[C@@H]2[C@@H](O)C[C@@]2(C)[C@H]1CC[C@]2(OC(=O)c1nccs1)C(=O)SCCO` [Example 40, (1R,3aS,3bS,10aR,10bS,11S,12aS)-7-(4-Fluorophenyl)-11-hydroxy-1-{[(2-hydroxy-ethyl)thio]carbonyl}-10a,12a-dimethyl-1,2,3,3a,3b,4,5,7,10,10a,10b,11,12,12a-tetradecahydrocyclopenta[5,6]naphtho[1,2-f]indazol-1-yl 1,3-thiazole-2-carboxylate] as the compound, how does the pIC50 read?
The pIC50 was 8.54.
